Laboratory results as given in paper PMC11242853, “The Antimicrobial Activity of Human Defensins at Physiological Non-Permeabilizing Concentrations Is Caused by the Inhibition of the Plasma Membrane H^+-ATPases” (International Journal of Molecular Sciences, 2024).
“Also recorded” adds a separate entry of the source. Where no end group is shown, it is not given here.

Columns and labels:
[1] = set-up: method as in 19 sources, ref 24; PMID 3290255; doi:10.1172/JCI113527; 24. Lehrer R.I. Ganz T. Szklarek D. Selsted M.E. Modulation of the in vitro candidacidal activity of human neutrophil defensins by target cell metabolism and divalent cations J. Clin. Invest. 1988 81 || [47]; PMID 11083633; doi:10.1128/AAC.44.12.3310-3316.2000; 47. Edgerton M. Koshlukova S.E. Araujo M.W. Patel R.C. Dong J. Bruenn J.A. Salivary histatin 5 and human neutrophil defensin 1 kill Candida albicans via shared pathways Antimicrob. Agents Chemother. 2 ||| ref 20 = [20]; PMID 17074797; doi:10.1128/AAC.00478-06; 20. Vylkova S. Nayyar N. Li W. Edgerton M. Human beta-defensins kill Candida albicans in an energy-dependent and salt-sensitive manner without causing membrane disruption Antimicrob. Agents Chemother. ||| ref 24, 62 (HNP-1); 62, 63 (HNP-4); 20 (hBD-2); 12, 20 (hBD-3); 34, 35, 64 cidal and 65, 66 static (lactoferrin) ||| ref 26 (HNP-1); 12 (HNP-4); 11 (hBD-2, hBD-3); 43, 67 (lactoferrin) ||| ref 14 (HNP-1); 23 (HNP-4); Yes 11, 13 / No 20 (hBD-2); No 20 / Yes 11 (hBD-3); 31, 34, 42 (lactoferrin) ||| ...; conditions: cited from earlier work; for candidacidal activity on C. albicans cells treated with CCCP: CCCP at pH 7.4; for Cell death inhibitors, intracellular: Azide: 24 (HNP-1); for Cell death inhibitors, intracellular: Azide / Cell death inhibitors, extracellular: Ca^2+ or Mg^2+: 20 (hBD-2, hBD-3); for Cidal/static: 62 (HNP-1), 62, 63 (HNP-4), 12, 20 (hBD-3), 34, 35, 64 cidal and 65, 66 static (lactoferrin); for Cidal/static / Cell death inhibitors, extracellular: K^+ or Na^+: 20 (hBD-2); for Antimicrobial range: Gm+ Gram-positive bacteria, Gm− Gram-negative bacteria, F fungi, V viruses, P protozoa, no reference given; for Membrane permeabilization: ref 14 (HNP-1), 23 (HNP-4), Yes 11, 13 / No 20 (hBD-2), No 20 / Yes 11 (hBD-3), 31, 34, 42 (lactoferrin); for Cell death inhibitors, extracellular: Ca^2+ or Mg^2+: 43 (lactoferrin); for Membrane depolarization: ref 26 (HNP-1), 12 (HNP-4), 11 (hBD-2, hBD-3), 43, 67 (lactoferrin); for Cell death inhibitors, extracellular: K^+ or Na^+: ref 68 (HNP-1), 69 (HNP-4), No 11, 12 / Yes 20 (hBD-3), 31, 36, 43 (lactoferrin)
C. albicans cells [2] = test: Total cellular ATP (BacTiter-Glo); type: cell-based, Candida albicans; conditions: for increase in ATP levels compared to the untreated control: defensins at NPIC, human lactoferrin 5 μM, BM2 peptide 0.25 μM, 10^6 cells/mL, BacTiter-Glo luminescence; for ATP increment: Table 2, no reference given
Description: Total ATP was measured using the BacTiter-Glo^TM Microbial Cell Viability Assay (Promega Co., Madison, WI, USA) according to the manufacturer’s instructions. […] Aliquots (100 µL) were incubated (90 min at 37 °C) with human defensins (NPICs). Human lactoferrin (5 μM) or BM2 peptide (0.25 μM) was used as positive controls. One hundred microliters of the incubation mixture was transferred to an opaque 96-well plate, mixed with an equal volume of BacTiter-Glo^TM reagent, and incubated for 15 min in the dark. The reagent uses a thermostable luciferase to generate luminescence in an ATP-dependent manner. The emitted luminescence was detected using a Varioskan Flash multimode reader (Thermo Scientific, Waltham, MA, USA) with a 10 s shaking and 1 s integration time. A calibration curve was generated for each experiment with ATP standards ranging from 1 to 1000 nM. All assays were performed at least three times in duplicate.

C. albicans cells [3] = test: Extracellular potassium measurement (K+-efflux, ICP-MS); type: cell-based, Candida albicans; conditions: Table 2; no reference given
Description: Potassium measurements were performed via inductively coupled plasma mass spectrometry using an Agilent 7700x ICP-MS (Agilent Technologies, Santa Clara, CA, USA). C. albicans cells were cultured in SDB for 16–20 h at 30 °C. The cells were then subcultured in the same media to the mid-logarithmic growth phase and rapidly washed in sterile, deionized, double-distilled water. The cells (10^7 cells/mL) were immediately incubated with the peptides (NPIC) for 90 min at 37 °C. The tubes were centrifuged at 1100× g for 10 min and the supernatants were collected and stored at 4 °C until analysis. The percentage of cytosolic potassium released from cell suspensions treated with nystatin (50 μM) was determined in positive control assays. Total cellular K^+-content (100% value) was measured in the supernatant of cell suspensions previously treated with 0.5% (v/v) HClO4 alone, heated for 1 h at 95 °C, and centrifuged to remove cell debris. Results are expressed as the percentage (means ± SD) of K^+-release relative to the total cellular K^+-content from duplicates of at least three independent assays.

P. aeruginosa cells = test: Permeability assay (propidium iodide uptake, flow cytometry), P. aeruginosa; type: cell-based, Pseudomonas aeruginosa; conditions: 90 min at 37 °C, Tris buffer, PI 1 µg/mL
Description: To determine whether the above microbicidal concentrations exert a permeabilizing effect on fungal and bacterial membranes, the influx of the fluorescent nucleic acid-binding dye propidium iodide (PI) in cells incubated with the peptides was assessed. In cells, dye uptake reflects membrane permeabilization, as PI itself cannot permeate through an intact phospholipid bilayer. […] To select an antimicrobial but non-permeabilizing concentration of each peptide for further assays, we defined as a non-permeabilizing inhibitory concentration (NPIC) the antimicrobial inhibitory concentration (≤10% viable cells) that permeabilized ≤ 10% of cells incubated (90 min at 37 °C) in buffer solution.

[4] = tested on: Lactococcus lactis subsp. lactis (strain IL1403); test: Antimicrobial spread-plate (CFU) killing assay, fermenting L. lactis; type: cell-based; conditions: fermentative conditions; range tested 0.062 to 2 µM; Tris buffer, 90 min at 37 °C
Description: Microbial susceptibility to the peptides was determined in a spread-plate assay as described previously. Briefly, cell suspensions (10^6 cells/mL) in Tris buffer (10 mM Tris-HCl, pH 7.4) were incubated for 90 min at 37 °C with 2-fold serial peptide dilutions. Peptide concentrations ranged from 0 to 2 μM. After incubation, the number of viable cells was determined by plating aliquots (100 μL) in duplicate on plates (SDA for C. albicans, TSA for P. aeruginosa, and M17G agarified medium for L. lactis) that had been dried for 30 min at room temperature in a laminar flow hood. Plates were incubated for 24–48 h at 30 °C (C. albicans and L. lactis) or 24 h at 37 °C (P. aeruginosa). Dilutions yielding 50–200 colonies were counted. Cell viability values, expressed as colony-forming units (CFUs), were calculated relative to the incubation without added peptides and represent the means ± standard deviation (SD) from duplicates of three independent experiments. For inhibition assays, unless otherwise noted, cell suspensions were preincubated (15 min at 37 °C) with the appropriate inhibitor prior to the addition of peptides, but the inhibitor was present throughout the incubation period with the peptide (90 min at 37 °C). Other specific experimental conditions are described as appropriate. […]

Row | Substance | candidacidal activity on C. albicans cells treated with CCCP [1] | Cell death inhibitors, intracellular: Azide ([1]; Table 2, 34 (lactoferrin)) | Cidal/static ([1]; Table 2) | Antimicrobial range ([1]; Table 2) | ATP-efflux ([1]; Table 2) | Cell death inhibitors, intracellular: Antimycin A (+SHAM) ([1]; Table 2) | Membrane permeabilization ([1]; Table 2) | Cell death inhibitors, extracellular: Ca^2+ or Mg^2+ ([1]; Table 2, ref 24 (HNP-1)) | Cell death inhibitors, intracellular: CCCP or DNP ([1]; Table 2, ref 24 (HNP-1), 34 (lactoferrin)) | Cell death inhibitors, extracellular: Anoxia ([1]; Table 2, ref 24 (HNP-1), 34, 35 (lactoferrin)) | Membrane depolarization ([1]; Table 2) | ATP increment ([1]; Table 2, ref 47 (HNP-1), 35 (lactoferrin)) | Cell death inhibitors, extracellular: K^+ or Na^+ ([1]; Table 2) | increase in ATP levels compared to the untreated control (C. albicans cells [2]) | Partial K^+-efflux (C. albicans cells [3]) | concentration showing permeabilizing activity (increase in intracellular PI), P. aeruginosa (P. aeruginosa cells) | calculated NPIC against fermenting L. lactis [4] | ATP increment (C. albicans cells [2])
1 | HNP-1: human α-defensin, UniProtKB P59665, 30 amino acids, three disulfide bonds; purchased from PeptaNova | protected | Yes | Cidal | Gm +,Gm −,F,V,P | Yes | Yes | Yes | Yes (Ca^2+); also recorded: No (Mg^2+) | Yes | Yes | Yes | Yes | Yes | ~ 7 fold | Yes | ≥ 0.5 µM | 0.125 µM | –
2 | HNP-4: human α-defensin, UniProtKB P12838, 33 amino acids; purchased from PeptaNova (VCSCRLVFCRRTELRVGNCLIGGVSFTYCCTRV; ends and bridges not checked; cysteine pairing not given here; UniProt P12838 64-96, looked up) | – | – | Cidal | Gm +,Gm −,F,V | – | – | Yes | – | – | – | Yes | – | – | ~ 8 fold | Yes | – | – | Yes
3 | hBD-3: human β-defensin, UniProtKB Q5U7J2, 45 amino acids; purchased from PeptaNova (GIINTLQKYYCRVRGGRCAVLSCLPKEEQIGKCSTRGRKCCRRKK; Beta-defensin 103; UniProt P81534 23-67, looked up) | protected | Yes | Cidal | Gm +,Gm −, F,V,P | – | – | – | No | – | – | Yes | – | No and Yes | ~ 6 fold | Yes | – | – | Yes
